Converted amounts (≈) assume the structure as drawn.
How the values were obtained:
COX-2 = biological target: T1, COX-2 (Homo sapiens, UniProt P35354); assay: fluorometric COX-2 inhibitor screening kit assay; assay type: biochemical; conditions: 25 °C
T1 construct: purchased Biovision K547-100
T1 sequence (P35354 18-604): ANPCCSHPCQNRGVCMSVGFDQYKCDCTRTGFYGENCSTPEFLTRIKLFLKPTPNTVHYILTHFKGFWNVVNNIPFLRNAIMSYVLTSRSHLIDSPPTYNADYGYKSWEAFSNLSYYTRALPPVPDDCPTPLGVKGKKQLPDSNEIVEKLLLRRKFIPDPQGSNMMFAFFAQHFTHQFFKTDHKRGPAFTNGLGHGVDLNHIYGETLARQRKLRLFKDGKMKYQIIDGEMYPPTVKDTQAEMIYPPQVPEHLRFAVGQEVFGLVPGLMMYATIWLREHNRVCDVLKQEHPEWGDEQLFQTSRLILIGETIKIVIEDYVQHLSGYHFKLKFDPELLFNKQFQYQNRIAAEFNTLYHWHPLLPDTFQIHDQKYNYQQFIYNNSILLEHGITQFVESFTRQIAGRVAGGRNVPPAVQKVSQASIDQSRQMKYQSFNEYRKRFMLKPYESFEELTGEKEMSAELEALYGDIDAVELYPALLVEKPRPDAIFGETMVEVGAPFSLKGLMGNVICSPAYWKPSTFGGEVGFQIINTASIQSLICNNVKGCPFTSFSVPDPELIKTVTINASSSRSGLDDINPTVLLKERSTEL
Experimental: (§1) Inhibitory potency of the compounds against COX-1 and COX-2 enzymes was determined using fluorometric COX-1 and COX-2 inhibitor screening kits (Biovision, Zurich, Switzerland). Experimental protocol was followed as described in the guides of the supplier[47]^,[48]. All of the pipettings in the assay were performed by Biotek Precision robotic system (BioTek Instruments, Inc., Winooski, VT). […] Appropriate two points (T1 and T2) in the linear range of the plot were chosen, and the corresponding fluorescence values (RFU1 and RFU2) were obtained. The slope for all samples, including enzyme control (EC), by dividing the net ΔRFU (RFU2–RFU1) values by the time ΔT (T2–T1) were calculated by using following equation: % Relative inhibition=(Slope of EC-Slope of S/Slope of EC)×100
(§2) This initial in vitro assay was done with two concentrations (10^−3 and 10^−4 M) for all compounds. […] The IC50 value was calculated from the plots of enzyme activity against concentrations by applying regression analyses on GraphPad Prism Version 5 (GraphPad Software, La Jolla, CA).
(§3) Selectivity indexes (SI) were expressed as IC50 (COX-1)/IC50 (COX-2). Selectivity toward COX-2 decreases as the corresponding SI decreases while selectivity toward COX-1 isoform increases as the corresponding SI decreases.

[1] = test system: Enterococcus faecalis (ATCC 29212); assay: broth microdilution MIC (CLSI M07-A9), resazurin; assay type: cell-based; conditions: ATCC29212, 24 h
Experimental: (§4) Microbiological studies were performed according to following guides: CLSI reference […]-A9 broth microdilution method[49] for bacterial strains and EUCAST definitive (EDef 7.1) method[50] for Candida species. Synthesized compounds were tested for their in vitro growth inhibitory activity against Staphylococcus aureus (ATCC 25923), Enterococcus faecalis (ATCC 29212), Listeria monocytogenes (ATCC 1911), Klebsiella pneumoniae (NCTC 9633), Escherichia coli (ATCC 35218), E. coli (ATCC 25922) Candida albicans (ATCC 24433) Candida krusei (ATCC 6258) and Candida parapsilosis (ATCC 22019). Chloramphenicol and ketoconazole were used as control drugs. The cultures were obtained from the Mueller-Hinton broth (Difco) for the bacterial strains after overnight incubation at 37 °C. The yeasts were maintained in Roswell Park Memorial Institute (RPMI) after overnight incubation at 37 °C. […] Testing was carried out in Mueller-Hinton broth and RPMI at pH =7, and the two-fold serial dilutions technique was applied. The last well on the microplates containing only inoculated broth was kept as controls and the last well with no growth of microorganism was recorded to represent the minimum inhibitory concentration (MIC) expressed in μg/mL. For both the antibacterial and antifungal assays, the compounds were dissolved in DMSO. […] The completed plates were incubated for 24 h. At the end of the incubation, resazurin (20 μg/mL) was added into each well and plates were incubated for 2 h. MIC values were determined using a microplate reader at […]. Synthesized compounds (6a-6m) were evaluated for antimicrobial activity against various microorganisms such as Staphylococcus aureus (ATCC 25923), Enterococcus faecalis (ATCC 29212), Listeria monocytogenes (ATCC 1911), Klebsiella pneumoniae (NCTC 9633), Escherichia coli (ATCC 35218), E. coli (ATCC 25922)Candida albicans (ATCC 24433) Candida krusei (ATCC 6258) and Candida parapsilosis (ATCC 22019). […] Chloramphenicol and ketoconazole were used as standard drugs in the activity test. […] Besides, the compounds 6d, 6h, 6l and 6m indicated stronger antibacterial activity than the other compounds in the series.

[2] = test system: Klebsiella pneumoniae (NCTC 9633); assay: broth microdilution MIC (CLSI M07-A9), resazurin; assay type: cell-based; conditions: 24 h
Experimental: as §4

[3] = test system: Escherichia coli (ATCC 25922); assay: broth microdilution MIC (CLSI M07-A9), resazurin; assay type: cell-based; conditions: ATCC25922, 24 h, read-out: MIC Ec-2
Experimental: as §4

[4] = test system: Staphylococcus aureus (ATCC 25923); assay: broth microdilution MIC (CLSI M07-A9), resazurin; assay type: cell-based; conditions: ATCC25923, 24 h
Experimental: as §4

[5] = test system: Escherichia coli (ATCC 35218); assay: broth microdilution MIC (CLSI M07-A9), resazurin; assay type: cell-based; conditions: ATCC35218, 24 h, read-out: MIC Ec-1
Experimental: as §4

[6] = test system: Listeria monocytogenes (ATCC 1911); assay: broth microdilution MIC (CLSI M07-A9), resazurin; assay type: cell-based; conditions: ATCC1911, 24 h
Experimental: as §4

[7] = test system: Candida parapsilosis (ATCC 22019); assay: broth dilution MIC (EUCAST EDef 7.1), resazurin; assay type: cell-based; conditions: ATCC22019, 24 h
Experimental: as §4

[8] = test system: Candida krusei (ATCC 6258); assay: broth dilution MIC (EUCAST EDef 7.1), resazurin; assay type: cell-based; conditions: Pichia kudriavzevii, ATCC6258, 24 h
Experimental: as §4

[9] = test system: Candida albicans (ATCC 24433); assay: broth dilution MIC (EUCAST EDef 7.1), resazurin; assay type: cell-based; conditions: ATCC24433, 24 h
Experimental: as §4

COX-1 = biological target: T2, COX-1 (Ovis aries, UniProt P05979); assay: fluorometric COX-1 inhibitor screening kit assay; assay type: biochemical; conditions: for SI (selectivity index): IC50 (COX-1)/IC50 (COX-2); for IC50: fluorometric kit, 25 °C; for Selectivity: isoform preferred according to SI
T2 construct: purchased Biovision K548-100
T2 sequence (P05979 25-600): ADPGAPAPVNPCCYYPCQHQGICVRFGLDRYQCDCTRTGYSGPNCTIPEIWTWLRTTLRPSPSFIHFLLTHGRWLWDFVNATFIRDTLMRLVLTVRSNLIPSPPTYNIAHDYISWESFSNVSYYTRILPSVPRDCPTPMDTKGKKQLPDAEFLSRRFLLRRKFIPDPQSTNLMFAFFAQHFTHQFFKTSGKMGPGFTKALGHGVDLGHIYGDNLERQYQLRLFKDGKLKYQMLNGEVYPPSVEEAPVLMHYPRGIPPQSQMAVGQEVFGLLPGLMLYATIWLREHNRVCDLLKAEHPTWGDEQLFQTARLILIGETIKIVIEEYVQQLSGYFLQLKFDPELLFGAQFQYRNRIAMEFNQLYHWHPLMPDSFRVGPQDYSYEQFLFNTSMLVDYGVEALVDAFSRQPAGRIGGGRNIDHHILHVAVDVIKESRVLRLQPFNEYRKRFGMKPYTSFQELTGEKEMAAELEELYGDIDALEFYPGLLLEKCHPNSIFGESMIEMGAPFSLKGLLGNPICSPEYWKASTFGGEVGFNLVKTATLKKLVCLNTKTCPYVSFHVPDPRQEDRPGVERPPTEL
Experimental: as §1, §2, §3

MTT cytotoxicity test = conditions: mouse
Experimental: NIH/3T3 cells were incubated according to the supplier’s recommendations. NIH/3T3 cells were seeded at 1 × 10^4 cells into each well of 96-well plates. MTT assay was performed as previously described[51]^,[52].
There are a number of requirements to be fulfilled for successful new drug development. […] This assay is based upon the reduction of yellow MTT dye by metabolically active eukaryotic and prokaryotic cells to form the purple formazan product. The assay is generally used to examine cell viability and to estimate cell culture growth[66]^,[67].

| Structure (SMILES) | IC50 (COX-2) | MIC [1] | MIC Kp [2] | MIC [3] | MIC [4] | MIC [5] | MIC [6] | melting point | MIC [7] | MIC [8] | MIC [9] | SI (selectivity index) (COX-1) | IC50 (COX-1) | Selectivity (COX-1) | IC50 (MTT cytotoxicity test) |
| --- | --- | --- | --- | --- | --- | --- | --- | --- | --- | --- | --- | --- | --- | --- | --- |
| CC(C(=O)O)c1ccc(CSc2nc3ccccc3s2)cc1 (stereo not shown) [Compound 6f, 2-(4-((Benzo[d]thiazol-2-ylthio)methyl)phenyl)propanoic acid] | 4.41 µM | 12.5 µg/mL (≈ 37.9 µM) | 12.5 µg/mL (≈ 37.9 µM) | 12.5 µg/mL (≈ 37.9 µM) | 12.5 µg/mL (≈ 37.9 µM) | 6.25 µg/mL (≈ 19 µM) | 12.5 µg/mL (≈ 37.9 µM) | 128.2 to 130.8 °C | 50 µg/mL (≈ 152 µM) | 100 µg/mL (≈ 304 µM) | 100 µg/mL (≈ 304 µM) | 0.54 | 2.36 µM | COX-1 |  |
| CC(C(=O)O)c1ccc(CSc2nc3cc(Cl)ccc3s2)cc1 (stereo not shown) [Compound 6g, 2-(4-(((5-Chlorobenzo[d]thiazol-2-yl)thio)methyl)phenyl)propanoic acid] | 4.25 µM | 12.5 µg/mL (≈ 34.4 µM) | 12.5 µg/mL (≈ 34.4 µM) | 12.5 µg/mL (≈ 34.4 µM) | 12.5 µg/mL (≈ 34.4 µM) | 6.25 µg/mL (≈ 17.2 µM) | 12.5 µg/mL (≈ 34.4 µM) | 162.3 to 164.7 °C | 50 µg/mL (≈ 137 µM) | 100 µg/mL (≈ 275 µM) | 100 µg/mL (≈ 275 µM) | 0.58 | 2.46 µM | COX-1 |  |
| CC(C(=O)O)c1ccc(CSc2nc3ccccc3[nH]2)cc1 (stereo not shown) [Compound 6i, 2-(4-(((1H-benzo[d]imidazol-2-yl)thio)methyl)phenyl)propanoic acid] | 9.56 µM | 12.5 µg/mL (≈ 40 µM) | 6.25 µg/mL (≈ 20 µM) | 12.5 µg/mL (≈ 40 µM) | 12.5 µg/mL (≈ 40 µM) | 6.25 µg/mL (≈ 20 µM) | 12.5 µg/mL (≈ 40 µM) | 208.7 to 210.9 °C | 50 µg/mL (≈ 160 µM) | 100 µg/mL (≈ 320 µM) | 100 µg/mL (≈ 320 µM) | 0.62 | 5.9 µM | COX-1 |  |
| Cc1ccc2[nH]c(SCc3ccc(C(C)C(=O)O)cc3)nc2c1 (stereo not shown) [Compound 6j, 2-(4-(((5-Methyl-1H-benzo[d]imidazol-2-yl)thio)methyl)phenyl)propanoic acid] | 7.53 µM | 12.5 µg/mL (≈ 38.3 µM) | 6.25 µg/mL (≈ 19.1 µM) | 12.5 µg/mL (≈ 38.3 µM) | 12.5 µg/mL (≈ 38.3 µM) | 6.25 µg/mL (≈ 19.1 µM) | 12.5 µg/mL (≈ 38.3 µM) | 209.1 to 211.6 °C | 50 µg/mL (≈ 153 µM) | 100 µg/mL (≈ 306 µM) | 100 µg/mL (≈ 306 µM) | 0.58 | 4.4 µM | COX-1 |  |
| CC(C(=O)O)c1ccc(CSc2nc3cc(Cl)ccc3[nH]2)cc1 (stereo not shown) [Compound 6k, 2-(4-(((5-Chloro-1H-benzo[d]imidazol-2-yl)thio)methyl)phenyl)propanoic acid] | 5.91 µM | 12.5 µg/mL (≈ 36 µM) | 6.25 µg/mL (≈ 18 µM) | 12.5 µg/mL (≈ 36 µM) | 12.5 µg/mL (≈ 36 µM) | 6.25 µg/mL (≈ 18 µM) | 12.5 µg/mL (≈ 36 µM) | 208.8 to 211.5 °C | 50 µg/mL (≈ 144 µM) | 50 µg/mL (≈ 144 µM) | 50 µg/mL (≈ 144 µM) | 0.63 | 3.71 µM | COX-1 |  |
| CC(C(=O)O)c1ccc(CSc2nc3cc([N+](=O)[O-])ccc3[nH]2)cc1 (stereo not shown) [Compound 6m, 2-(4-(((5-Nitro-1H-benzo[d]imidazol-2-yl)thio)methyl)phenyl)propanoic acid] | 8.66 µM | 6.25 µg/mL (≈ 17.5 µM) | 6.25 µg/mL (≈ 17.5 µM) | 6.25 µg/mL (≈ 17.5 µM) | 6.25 µg/mL (≈ 17.5 µM) | 6.25 µg/mL (≈ 17.5 µM) | 12.5 µg/mL (≈ 35 µM) | 176.5 to 178.7 °C | 50 µg/mL (≈ 140 µM) | 50 µg/mL (≈ 140 µM) | 50 µg/mL (≈ 140 µM) | 0.52 | 4.48 µM | COX-1 |  |
| CC(C)Cc1ccc(C(C)C(=O)O)cc1 (stereo not shown) [Ibuprofen, reference compound] |  |  |  |  |  |  |  |  |  |  |  |  |  |  | ≥ 1000 µM |

Reference: publication PMC6445163, “Design, synthesis, and evaluation of novel 2-phenylpropionic acid derivatives as dual COX inhibitory-antibacterial agents” (Journal of Enzyme Inhibition and Medicinal Chemistry, 2017)
